Patent publication US7300770B2, “Detection of microbe contamination on elastomeric articles” (Kimberly-Clark Worldwide, Inc., priority 2004, dated 2007)
Where “and” joins values, the source holds several entries; their conditions need not be identical. Equal values may be shown once.

Key:
Rhinovirus [1] = experiment: Virus detection on Reichardt's dye-coated stickers; conditions: virus diluted serially in saline; 50 microliters, 3 minutes
[2] = system: aged chicken juice (bacteria); experiment: Dye spray on hot plate: aged chicken juice versus canned chicken broth; conditions: 160 mg/10 mL isopropanol spray
Excerpt: Canned chicken broth was utilized as a control that would contain chicken derived products such as lipids, protein, etc., to check for potential interferences from these naturally occurring materials. Freshly opened Swanson® Chicken Broth was pipette onto a hot plate surface and wiped dry with a SCOTT® towel. Juice from raw chicken that had been stored at room temperature for several days was also pipetted onto the hot plate and wiped dry as a positive control. […] Thus, in the case of chicken, the presence of microbes was clearly responsible for triggering the change in color, and not some other component, such as chicken fat or proteins.

[3] = system: aged, pooled female urine; experiment: Bacterial quantification of aged pooled female urine by dye titration; conditions: 100 microliters urine
Excerpt: Table 2 presents the volume of each dye solution required for the dye color to remain steady.

S. aureus [4] = experiment: Color change of Reichardt's dye-treated elastomeric gloves on contact with S. aureus; conditions: natural rubber latex glove; 160 mg dye/10 mL acetonitrile; 10^7 CFU/mL S. aureus
Excerpt: Specifically, a solution of Reichardt's dye (160 milligrams per 10 milliliters of acetonitrile) was brushed onto a piece of a natural rubber latex glove (commercially available from Kimberly-Clark Corp.). A 100-microliter drop of 10^7 CFU/mL S. aureus was then applied to the surface of the glove and gently spread using a disposable pipette. Thereafter, a finger of a second natural rubber latex glove (commercially available from Kimberly-Clark Corp.) was dipped into a solution of Reichardt's dye (160 milligrams per 10 milliliters of acetonitrile). After drying, the fingers of the second glove were used to spread bacteria from the S. aureus droplet placed onto the piece of latex glove to another area on the latex piece.

[5] = Longest wavelength peak absorption of dyes in three solvents (UV-Visible); format: physicochemical
Excerpt: Reichardt's dye was used without further purification. […] Acetone, methanol, and acetonitrile solvents (HPLC grade) were obtained from Sigma-Aldrich Chemical Co., Inc. A Shimadzu UV-1601 UV-Visible Spectrophotometer (Shimadzu Corporation) was used to measure the longest wavelength peak absorption of the dyes in the range of 400 to 800 nanometers, dissolved in three different solvents, contained in quartz curvettes. The following table contains the results of the testing with the solvents on the left side and dyes across the top.

[6] = system: juice from the aged chicken (high bacterial levels); experiment: Isopropanol dye spray on doorknob marked with aged chicken juice; conditions: 160 mg dye in 10 mL isopropanol, sprayed
Excerpt: Plastic doorknobs were utilized as a “real world” surface on which to test bacterial contamination. A raw chicken leg was initially aged at room temperature for several days to ensure high bacterial levels (referred to hereinafter as “aged chicken”). Juice from the aged chicken was then used to mark the surface of one of the knobs. The other door knob was left uncontaminated as a control. Both knobs were wiped. […] The isopropanol solution of the dye was sprayed on both surfaces.

[7] = Acid-base reversibility of dye color on towel
E. coli = experiment: Titration of microorganisms with Reichardt's dye on cellulosic towel; parameters: species or system Escherichia coli; conditions: Gram(-), 10^7 CFU/mL, 100 microliters
Rhinovirus [8] = system: Rhinovirus
S. aureus [9] = experiment: Delta E of dye-coated paper and label substrates versus bacteria concentration
Excerpt: More specifically, indicator strips coated with Reichardt's dye were exposed with decreasing amounts of the bacteria aliquots. A hand-held spectrophotometer was used to after application of each aliquot to determine “Delta E” value (calculated using L*, A*, and B* values) for each CFU/mL concentration. The results are set forth below in Table 4 (for paper) and Table 5 (for label). From the above, standard detection curves were generated as shown in FIGS. 5-7 for S. aureus, P. aeruginosa, and E. coli, respectively. As shown, each type of bacteria changed the color of the dye-treated substrate in a slightly different way, creating a unique standard curve. Thereafter, drops of unknown bacteria concentrations were placed on the stickers and a spectrophotometer was used to measure the “Delta E” of the resulting color. The numerical values obtained for each unknown sample set forth below in Tables 6-7. […] Although a few of the results were not completely accurate, the present inventors believe that improving the uniformity of the coating would further enhance detection accuracy.

vaginal fluid samples = experiment: Dye-coated stickers tested with vaginal fluid samples
Procedure: A sticker of each concentration was tested with normal, BV positive/pH positive, and BV negative/pH positive vaginal fluid samples. […] The three states of color change were easily distinguishable.

G. vaginalis = experiment: Titration of microorganisms with Reichardt's dye on cellulosic towel; conditions: Gram(-), 10^7 CFU/mL, 100 microliters
Polio virus type 1 = conditions: virus diluted serially in media; 50 microliters, 3 minutes
S. aureus [10] = experiment: Titration of serially diluted S. aureus suspensions on paper towel with dye
Excerpt: 100 microliters of serially diluted S. aureus bacterial suspensions were placed onto a SCOTT® paper towel. Drops (10 microliters) of the Reichardt's dye in acetonitrile solution (40 milligrams/10 milliliters) were then pipetted onto each spot where the bacteria was placed. The dye solution changed color in less than 1 second. […] This was repeated on each spot corresponding to where different concentrations of bacteria were placed.

[11] = 100 microliters undiluted virus, 80 mg/10 mL acetonitrile with or without TWEEN 80
[12] = surfactant- and non-surfactant-containing solutions
[13] = paper substrate, S. aureus, log CFU/ml (actual) 5

Compound: [O-]c1c(-c2ccccc2)cc(-[n+]2c(-c3ccccc3)cc(-c3ccccc3)cc2-c2ccccc2)cc1-c1ccccc1 [Reichardt's dye, 4-(2,4,6-triphenylpyridinium-1-yl)-2,6-diphenylphenolate]
- Ten-fold dilution down to which stickers changed color (Rhinovirus [1]): 10^−6
- Color change on hot plate surface [2]: only the side containing the aged chicken juice (and thus bacteria) changed color
- Volume of dye solution required for the dye color to remain steady ([3]; 4 mg/ml dye solution in acetonitrile): 120 µL
- Volume of dye solution required for the dye color to remain steady ([3]; 16 mg/ml dye solution in acetonitrile): 30 µL
- Color change of glove piece and glove finger (S. aureus [4]): immediately changed
- Color in solvent ([5]; Acetone): (Bluish-green)
- Longest wavelength peak absorption ([5]; Acetone): 674 nm
- Color in solvent ([5]; Acetonitrile): (Blue)
- Longest wavelength peak absorption ([5]; Acetonitrile): 623 nm
- Color in solvent ([5]; Methanol): (red)
- Longest wavelength peak absorption ([5]; Methanol): 509 nm
- Color change at contaminated area of doorknob [6]: blue to colorless
- Dye added until the color persisted (Polio virus; [11]): approximately 9 drops
- Discharge of dye color on virus spot (Polio virus; [12]): rapidly discharged
- Effect of 1 N NaOH on the changed spots ([7]; after acetic acid or pH 2.0 buffer): rapid re-colorization
- Color change with acetic acid and pH 2.0 buffer ([7]; dried dye spots on towel): rapid color change
- Amount of Dye Required for Persistent Color (E. coli): 80 µL
- Dye added until the color persisted (Rhinovirus [8]; [11]): approximately 9 drops
- Discharge of dye color on virus spot (Rhinovirus [8]; [12]): rapidly discharged
- Delta E of unknown sample (S. aureus [9]; label substrate, S. aureus, log CFU/ml (actual) 6): 6.869 and 4.228
- Delta E (S. aureus) (S. aureus [9]; label substrate, log CFU/ml 3): 5.414
- Delta E (S. aureus) (S. aureus [9]; label substrate, log CFU/ml 4): 4.791
- Delta E (S. aureus) (S. aureus [9]; label substrate, log CFU/ml 5): 6.92
- Delta E (S. aureus) (S. aureus [9]; label substrate, log CFU/ml 6): 6.908
- Delta E (S. aureus) (S. aureus [9]; label substrate, log CFU/ml 7): 18.62
- Delta E of unknown sample (S. aureus [9]; [13]): 3.161
- log CFU/ml (estimated) (S. aureus [9]; [13]): 5
- Delta E (S. aureus) (S. aureus [9]; paper substrate, log CFU/ml 3): 1.867
- Delta E (S. aureus) (S. aureus [9]; paper substrate, log CFU/ml 4): 2.074
- Delta E (S. aureus) (S. aureus [9]; paper substrate, log CFU/ml 5): 2.447
- Delta E (S. aureus) (S. aureus [9]; paper substrate, log CFU/ml 6): 3.876
- Delta E (S. aureus) (S. aureus [9]; paper substrate, log CFU/ml 7): 11.73
- Color change of dye-coated sticker (vaginal fluid samples; BV negative/pH positive sample): only faintly changed the color
- Color change of dye-coated sticker (vaginal fluid samples; BV positive/pH positive sample): next sharpest color change
- Color change of dye-coated sticker (vaginal fluid samples; normal vaginal fluid): sharpest color change
- Amount of Dye Required for Persistent Color (G. vaginalis): 90 µL
- Ten-fold dilution down to which stickers changed color (Polio virus type 1): 10^−6
- Time for dye solution to change color (S. aureus [10]; 10 microliter drops, 40 mg/10 mL acetonitrile, on S. aureus spots): less than 1 second
- Correlation of titration with level of bacterial contamination (S. aureus [10]; drops added until color remained steady): good correlation
